Reference: US20140315876A1, “BETA-LACTAMASE INHIBITORS” (priority 2013, published 2014)
Counter-ions that a name gives are not always drawn.

What was measured:
[1] = tested on: bacterial strains that express KPC β-lactamases; assay: Synergy MIC / standard BLI potentiation MIC assay, strains expressing KPC β-lactamases; type: cell-based; details: more active for at least one KPC strain and/or better spectrum of activity than Avibactam; in the presence of a β-lactam
Method: (§1) The experimental protocol was performed according to Clinical and Laboratory Standards Institute (CLSI) guidelines with modifications as described below (CLSI guidelines can be derived from the CLSI document M07-A9 published in January 2012: “Methods for Dilution Antimicrobial Susceptibility Tests for Bacteria That Grow Aerobically; Approved Standard-Ninth Edition”).
(§2) To prepare for MIC testing, frozen glycerol stocks of clinical isolates (Klebsiella pneumoniae, Eschericia coli, Enterobacter spp, Citrobacter spp, or Pseudomonas aeruginosa) were used to streak for isolated colonies on rich, non-selective, tryptic soy agar containing 5% sheep's blood (TSAB). Frozen glycerol stocks of laboratory engineered, isogenic E. coli strains, which contain cloned β-lactamase expressing plasmids were used to streak for isolated colonies on rich, selective LB agar supplemented with 25 μg/mL tetracycline to maintain the plasmid. All strains were incubated at 37° C. for 18-24 hrs.
(§3) On the day of testing, primary cultures were started by scraping off 5-10 colonies from the TSAB plates containing clinical strains or the tetracycline supplemented LB plates containing engineered strains. The clinical strain material was suspended in ˜5 mL of cation adjusted Mueller Hinton Broth (CAMHB) in 14 mL culture tubes. The engineered strain material was suspended in CAMHB (supplemented with 25 μg/mL tetracycline) in 14 mL culture tubes. All strains were incubated at 37° C. with aeration (200 rpm) for ˜2 hrs until the optical density at 600 nm (OD600) was ≧0.1.
(§4) The two compound components of the assay were each diluted in CAMHB and added to the 96-well broth microdilution assay plates. 50 μL of the β-lactam was added to each well of the assay plate in 2-fold dilutions with final concentrations ranging from 128 to 0.13 μg/mL. 25 μL of the BLI compound was added to all wells in the broth microdilution plates at a final concentration of 4 μg/mL. Inoculum cultures were prepared by standardizing the primary cultures to OD600=0.1 and then adding 20 μL of the adjusted primary culture per 1 mL CAMHB for clinical strains or CAMHB (supplemented with tetracycline at 100 μg/mL) for engineered strains, so that the final inoculum density was ˜10^5 colony forming units per milliliter. Diluted inoculum cultures were used to inoculate 25 μL per well in 96-well broth microdilution assay plates. The final volume of each well was 100 μL and contained a β-lactam at different concentrations, a BLI compound at 4 μg/mL concentration, the bacterial culture at an OD600 of approximately 0.001 and when necessary tetracycline at 25 μg/mL.
(§5) Plates were incubated for 18-20 hours at 37° C. with aeration (200 rpm). Following incubation, growth was confirmed visually placing plates over a viewing apparatus (stand with a mirror underneath) and then OD600 was measured using a SpectraMax 340PC384 plate reader (Molecular Devices, Sunnyvale, Calif.). Growth was defined as turbidity that could be detected with the naked eye or achieving minimum OD600 of 0.1. MIC values were defined as the lowest concentration producing no visible turbidity.
(§6) The synergy MIC (sMIC) assay determines the concentration of the BLI required to potentiate the activity of a fixed concentration of a β-lactam antibiotic against β-lactamase producing bacterial strains. The experimental protocol was performed according to Clinical and Laboratory Standards Institute (CLSI) guidelines with modifications as described below (CLSI guidelines can be derived from the CLSI document M07-A9 published in January 2012: “Methods for Dilution Antimicrobial Susceptibility Tests for Bacteria That Grow Aerobically; Approved Standard-Ninth Edition”). […]

[2] = tested on: bacterial strains that express the class D cephalosporinase OXA-15; assay: Synergy MIC / standard BLI potentiation MIC assay, strains expressing OXA-15; type: cell-based, E. coli; details: in the presence of a β-lactam; comparator Avibactam (comparator compound CCC)
Method: as §1, §2, §3, §4, §5, §6

Row | SMILES | activity and/or spectrum of activity against bacterial strains that express KPC β-lactamases, compared with Avibactam [1] | activity against bacterial strains that express the class D cephalosporinase OXA-15, compared with Avibactam [2]
1 | O=C1N2C[C@@H](CC[C@H]2c2nnc([C@H]3[C@@H]4CNC[C@@H]43)o2)N1OS(=O)(=O)O [Compound 740, (2S,5R)-2-(5-(3-azabicyclo[3.1.0]hexan-6-yl)-1,3,4-oxadiazol-2-yl)-7-oxo-1,6-diazabicyclo[3.2.1]octan-6-yl hydrogen sulfate] | more active than Avibactam | more active than Avibactam
2 | N=C(N)N[C@H]1C[C@@H](c2nnc([C@@H]3CC[C@@H]4CN3C(=O)N4OS(=O)(=O)O)s2)C1 [Compound 784, (2S,5R)-2-(5-((1s,3R)-3-guanidinocyclobutyl)-1,3,4-thiadiazol-2-yl)-7-oxo-1,6-diazabicyclo[3.2.1]octan-6-yl hydrogen sulfate] | more active than Avibactam | more active than Avibactam
3 | N[C@H]1CN[C@@H](c2nnc([C@@H]3CC[C@@H]4CN3C(=O)N4OS(=O)(=O)O)o2)C1 [Compound 761, (2S,5R)-2-(5-((2R,4R)-4-aminopyrrolidin-2-yl)-1,3,4-oxadiazol-2-yl)-7-oxo-1,6-diazabicyclo[3.2.1]octan-6-yl hydrogen sulfate] | more active than Avibactam | more active than Avibactam
4 | O=C1N2C[C@@H](CC[C@H]2c2nnco2)N1OS(=O)(=O)O [Compound 701, (2S,5R)-2-(1,3,4-oxadiazol-2-yl)-7-oxo-1,6-diazabicyclo[3.2.1]octan-6-yl hydrogen sulfate] | more active than Avibactam | more active than Avibactam
5 | O=C1N2C[C@@H](CC[C@H]2c2nnc(CCNCCO)o2)N1OS(=O)(=O)O [Compound 736, (2S,5R)-2-(5-(2-((2-hydroxyethyl)amino)ethyl)-1,3,4-oxadiazol-2-yl)-7-oxo-1,6-diazabicyclo[3.2.1]octan-6-yl hydrogen sulfate] | more active than Avibactam | more active than Avibactam
6 | O=C1N2C[C@@H](CC[C@H]2c2nnc(CN[C@H]3CCNC3)o2)N1OS(=O)(=O)O [Compound 765, (2S,5R)-7-oxo-2-(5-(((S)-pyrrolidin-3-ylamino)methyl)-1,3,4-oxadiazol-2-yl)-1,6-diazabicyclo[3.2.1]octan-6-yl hydrogen sulfate] | more active than Avibactam | more active than Avibactam
7 | N=C(N)N1CC(c2nnc([C@@H]3CC[C@@H]4CN3C(=O)N4OS(=O)(=O)O)o2)C1 [Compound 709, (2S,5R)-2-(5-(1-carbamimidoylazetidin-3-yl)-1,3,4-oxadiazol-2-yl)-7-oxo-1,6-diazabicyclo[3.2.1]octan-6-yl hydrogen sulfate] | more active than Avibactam | more active than Avibactam
8 | N[C@H]1C[C@@H](CCc2nnc([C@@H]3CC[C@@H]4CN3C(=O)N4OS(=O)(=O)O)o2)C1 [Compound 754, (2S,5R)-2-(5-(2-((1s,3S)-3-aminocyclobutyl)ethyl)-1,3,4-oxadiazol-2-yl)-7-oxo-1,6-diazabicyclo[3.2.1]octan-6-yl hydrogen sulfate] | more active than Avibactam | more active than Avibactam
9 | N[C@H]1CN[C@H](c2nnc([C@@H]3CC[C@@H]4CN3C(=O)N4OS(=O)(=O)O)o2)C1 [Compound 762, (2S,5R)-2-(5-((2S,4R)-4-aminopyrrolidin-2-yl)-1,3,4-oxadiazol-2-yl)-7-oxo-1,6-diazabicyclo[3.2.1]octan-6-yl hydrogen sulfate] | more active than Avibactam | more active than Avibactam
10 | N[C@@H]1CC[C@H](c2nnc([C@@H]3CC[C@@H]4CN3C(=O)N4OS(=O)(=O)O)o2)C1 [Compound 729, (2S,5R)-2-(5-((1S,3R)-3-aminocyclopentyl)-1,3,4-oxadiazol-2-yl)-7-oxo-1,6-diazabicyclo[3.2.1]octan-6-yl hydrogen sulfate] | more active than Avibactam | more active than Avibactam
11 | N[C@@H]1CN[C@@H](c2nnc([C@@H]3CC[C@@H]4CN3C(=O)N4OS(=O)(=O)O)o2)C1 [Compound 763, (2S,5R)-2-(5-((2R,4S)-4-aminopyrrolidin-2-yl)-1,3,4-oxadiazol-2-yl)-7-oxo-1,6-diazabicyclo[3.2.1]octan-6-yl hydrogen sulfate] | more active than Avibactam | more active than Avibactam
12 | O=C1N2C[C@@H](CC[C@H]2c2nnc(CN[C@@H]3CCNC3)o2)N1OS(=O)(=O)O [Compound 766, (2S,5R)-7-oxo-2-(5-(((R)-pyrrolidin-3-ylamino)methyl)-1,3,4-oxadiazol-2-yl)-1,6-diazabicyclo[3.2.1]octan-6-yl hydrogen sulfate] | more active than Avibactam | more active than Avibactam
13 | CNCCCc1nnc([C@@H]2CC[C@@H]3CN2C(=O)N3OS(=O)(=O)O)o1 [Compound 734, (2S,5R)-2-(5-(3-(methylamino)propyl)-1,3,4-oxadiazol-2-yl)-7-oxo-1,6-diazabicyclo[3.2.1]octan-6-yl hydrogen sulfate] | more active than Avibactam | more active than Avibactam
14 | N[C@H]1CC[C@@H](c2nnc([C@@H]3CC[C@@H]4CN3C(=O)N4OS(=O)(=O)O)o2)C1 [Compound 768, (2S,5R)-2-(5-((1R,3S)-3-aminocyclopentyl)-1,3,4-oxadiazol-2-yl)-7-oxo-1,6-diazabicyclo[3.2.1]octan-6-yl hydrogen sulfate] | more active than Avibactam | more active than Avibactam
15 | NCCCc1nnc([C@@H]2CC[C@@H]3CN2C(=O)N3OS(=O)(=O)O)o1 [Compound 720, (2S,5R)-2-(5-(3-aminopropyl)-1,3,4-oxadiazol-2-yl)-7-oxo-1,6-diazabicyclo[3.2.1]octan-6-yl hydrogen sulfate] | more active than Avibactam | more active than Avibactam
16 | NC1CCN(CCc2nnc([C@@H]3CC[C@@H]4CN3C(=O)N4OS(=O)(=O)O)o2)CC1 [Compound 775, (2S,5R)-2-(5-(2-(4-aminopiperidin-1-yl)ethyl)-1,3,4-oxadiazol-2-yl)-7-oxo-1,6-diazabicyclo[3.2.1]octan-6-yl hydrogen sulfate] | more active than Avibactam | –
